Values joined by “and” are separate entries in the source; they are usually repeats but may differ in a detail not shown here. Identical values can stand only once. “Also recorded” adds a separate entry of the source.
What was measured:
GPR3 [1] = biological target: T1, GPR3 (Homo sapiens, UniProt P46089); test: GloSensor cAMP assay in GPR3 stably expressing AD293 cell line (agonist mode); format: cell-based
T1 construct: expressed in transfected cells
Protocol: (§1) The GloSensor cAMP assay was performed according to the instructions of Promega. AD293 cells were split into 6-well plate (300,000 cells/mL) and then transfected with the pGloSensor™-22F cAMP plasmid and pcDNA3-GPR3 plasmid by Lipofectamine 2000, at a ratio of 2:1 (μL:μg). 24 h after transfection, cells were split into 96-well plate for another 24 h incubation. After removal of cell medium, 90 μL of 3% v/v (the GloSensor cAMP reagent vs serum-free medium) substrate was added into each well. After 2 h incubation at RT, background measurements were taken, and then 10 μL 10× stock compounds were added for the second measurements of ligand activation via EnVision 2105 (PerkinElmer). Relative cAMP level was calculated by the cAMP level after addition of ligand divided by the cAMP level before addition of ligand (basal level). Stock FAs (i.e., 10–50 mM) were solubilized in DMSO, then diluted in cell culture buffer to designated concentrations and sonicated to ensure that they were evenly distributed in the buffer before being added to cells.
AD293 cells were split into 6-well plate (300,000 cells/mL), and then transfected with the pGloSensor™-22F cAMP plasmid and the pcDNA6-GPR3-3× FLAG plasmid (WT receptor or the mutants, F120A^3.36, W260A^6.48, L283F^7.39, A201W^5.46, Y280A^7.36, H96A^2.60 and H96A^2.60/Y280A^7.36) by Lipofectamine 2000 at a ratio of 2:1 (μL:μg). Geneticin (2 mg/mL) and blasticidin (20 μg/mL) were used to select colonies that stably express both GPR3 and GloSensor 22F. The cell culture medium containing antibiotics was changed every 2 days till well-separated colonies appeared. Then individual single colony was picked by a small piece of sterilized filter paper soaked with trypsin and separately cultured in a single well of 24-well plate. At least 24 candidate colonies were selected for each mutant and WT. After several days of culture, each colony was triplicated. One of the triplicates was used for western blot analysis, another for the GloSensor cAMP assay, and the remaining one was stored for staining. The colonies with top scores in both expression (western blot) and functional assay were selected as the representative colonies for each mutant or WT for further analysis.

GPR6 = biological target: T2, GPR6 (Homo sapiens, UniProt P46095); test: GloSensor cAMP assay in GPR6 stably expressing AD293 cell line; format: cell-based; details: lipid concentration 300 μM
T2 construct: FLAG; expressed in transfected cells

GPR3 [2] = biological target: T1, GPR3; test: Inhibition of OA-induced GPR3 activation, GloSensor cAMP assay in GPR3 stably expressing AD293 cell line; format: cell-based; details: OA concentration fixed at 300 μM; read-out: IC50 of OA-induced receptor activation
Protocol: as §1
(§2) AD293 cells were split into 6-well plate (300,000 cells/mL), and then transfected with the pGloSensor™-22F cAMP plasmid and the pcDNA6-GPR3-3× FLAG plasmid (WT receptor or the mutants, F120A^3.36, W260A^6.48, L283F^7.39, A201W^5.46, Y280A^7.36, H96A^2.60 and H96A^2.60/Y280A^7.36) by Lipofectamine 2000 at a ratio of 2:1 (μL:μg). […]

[3] = test system: Gs/cAMP/PKA signaling in iBAT; test: Ex vivo iBAT of WT mice, p-PKA substrate immunoblot; format: cell-based, mouse; details: up to 4 h
Protocol: iBAT was isolated from C57BL/6N mice at 4-6 weeks old and cut into 10 mg pieces. […] Another group of iBAT pieces were incubated in DMEM medium at 4 °C, and treated with different doses of OA (0 mM, 1 mM, 5 mM) for 4 h. OA (Sigma, O1008) was dissolved in serum-free DMEM (Gibco, high glucose, 12100046) by using an ultrasonic cleaner at 40 °C for 10 min.

GPR120 = test system: GPR120; design: method as in PMID 36862765; details: cited from earlier work
GPR3 H96A mutant = biological target: T3, GPR3 H96A mutant (Homo sapiens, UniProt P46089, H96A); test: OA dose-response, GloSensor cAMP assay, AD293 stably expressing GPR3 H96A mutant; format: cell-based; details: Table S3, H96A
T3 construct: expressed in transfected cells
Protocol: as §1, §2

GPR3 Y280A mutant = biological target: T4, GPR3 Y280A mutant (Homo sapiens, UniProt P46089, Y280A); test: OA dose-response, GloSensor cAMP assay, AD293 stably expressing GPR3 Y280A mutant; format: cell-based; details: Table S3, Y280A
T4 construct: expressed in transfected cells
Protocol: as §1, §2

[4] = design: method as in PMID 7722695, PMID 18059405; details: feeding rats with OA; cited from earlier work
GPR3 F120A mutant = biological target: T5, GPR3 F120A mutant (Homo sapiens, UniProt P46089, F120A); test: OA dose-response, GloSensor cAMP assay, AD293 stably expressing GPR3 F120A mutant; format: cell-based; details: Table S3, F120A
T5 construct: expressed in transfected cells
Protocol: as §1, §2

GPR3 L283F mutant = biological target: T6, GPR3 L283F mutant (Homo sapiens, UniProt P46089, L283F); test: OA dose-response, GloSensor cAMP assay, AD293 stably expressing GPR3 L283F mutant; format: cell-based; details: Table S3, L283F
T6 construct: expressed in transfected cells
Protocol: as §1, §2

GPR3 H96A/Y280A mutant = biological target: T7, GPR3 H96A/Y280A mutant (Homo sapiens, UniProt P46089, H96A/Y280A); test: OA dose-response, GloSensor cAMP assay, AD293 stably expressing GPR3 H96A/Y280A mutant; format: cell-based; details: H96A/Y280A stable line
T7 construct: expressed in transfected cells
Protocol: as §1, §2

GPR3 A201W mutant = biological target: T8, GPR3 A201W mutant (Homo sapiens, UniProt P46089, A201W); test: OA dose-response, GloSensor cAMP assay, AD293 stably expressing GPR3 A201W mutant; format: cell-based; details: Table S3, A201W
T8 construct: expressed in transfected cells
Protocol: as §1, §2

[5] = test system: Gs/cAMP/PKA signaling in Gpr3 KO iBAT; test: Ex vivo iBAT of Gpr3 KO mice, p-PKA substrate immunoblot; format: cell-based, mouse; details: OA 1 mM, 4 h
Protocol: iBAT was isolated from C57BL/6N mice at 4–6 weeks old and cut into 10 mg pieces. 10 mg iBAT was further cut into four pieces.[67] iBAT pieces were incubated in Dulbecco’s modified eagle medium (DMEM) at 4 °C, and treated with OA (1 mM) for different times (0 h, 1 h, 2 h, and 4 h). Another group of iBAT pieces were incubated in DMEM medium at 4 °C, and treated with different doses of OA (0 mM, 1 mM, 5 mM) for 4 h. OA (Sigma, O1008) was dissolved in serum-free DMEM (Gibco, high glucose, 12100046) by using an ultrasonic cleaner at 40 °C for 10 min. p-(S/T)PKA substrate and GAPDH levels were measured by immunoblotting, and quantified by densitometry using ImageJ. iBAT was also isolated from WT and Gpr3 KO mice at 4–6 weeks old and cut into 10 mg pieces. 10 mg iBAT was further cut into four pieces. iBAT pieces were incubated in DMEM medium at 4 °C, and treated with or without OA (1 mM) for 4 h. p-(S/T)PKA substrate and GAPDH levels were measured by immunoblotting, and quantified by ImageJ.
To generate Gpr3 complete KO mice rapidly, we performed one-step complete knockout based on CRISPR/Cas9 systems, which was described previously.[68] Briefly, four adjacent single-guide RNAs (sgRNAs) (spaced 50–100 bp apart; sgRNA1: […]; sgRNA2: […]; sgRNA3: […]; sgRNA4: […]) that target key exon of Gpr3 were designed. […]

GPR12 = biological target: T9, GPR12 (Homo sapiens, UniProt P47775); test: GloSensor cAMP assay in GPR12 stably expressing AD293 cell line; format: cell-based; details: lipid concentration 300 μM
T9 construct: FLAG; expressed in transfected cells
T9 sequence (P47775 1-334): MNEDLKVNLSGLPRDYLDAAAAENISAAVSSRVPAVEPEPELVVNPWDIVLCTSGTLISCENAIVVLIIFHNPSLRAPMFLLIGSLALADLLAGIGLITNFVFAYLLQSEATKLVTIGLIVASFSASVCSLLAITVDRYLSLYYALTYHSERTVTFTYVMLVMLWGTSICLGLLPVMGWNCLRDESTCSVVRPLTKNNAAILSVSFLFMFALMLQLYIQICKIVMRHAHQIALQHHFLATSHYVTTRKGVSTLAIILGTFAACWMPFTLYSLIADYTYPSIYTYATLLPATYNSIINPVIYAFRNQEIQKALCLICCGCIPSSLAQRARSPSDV

GPR3 W260A mutant = biological target: T10, GPR3 W260A mutant (Homo sapiens, UniProt P46089, W260A); test: OA dose-response, GloSensor cAMP assay, AD293 stably expressing GPR3 W260A mutant; format: cell-based; details: W260A stable line
T10 construct: expressed in transfected cells
Protocol: as §1, §2

[6] = Table S2, relative cAMP level, at 500 μM (FA 12:0, 16:1, 18:0, OEA 18:1, OLM 18:1), 450 μM (FA 18:1), 400 μM (FA 16:0), 300 μM (FA 22:0, 18:2), 100 μM (FAME 18:0, FAEE 18:0, lysophospholipids), 3 μM (LTB4)
[7] = cAMP induction, GPR3 stably expressing AD293
[8] = WT iBAT at 4 °C, lipid 1 mM (OA also 5 mM)
[9] = Table S3, WT receptor stable line, OA dose-response

T1 sequence (P46089 whole entry): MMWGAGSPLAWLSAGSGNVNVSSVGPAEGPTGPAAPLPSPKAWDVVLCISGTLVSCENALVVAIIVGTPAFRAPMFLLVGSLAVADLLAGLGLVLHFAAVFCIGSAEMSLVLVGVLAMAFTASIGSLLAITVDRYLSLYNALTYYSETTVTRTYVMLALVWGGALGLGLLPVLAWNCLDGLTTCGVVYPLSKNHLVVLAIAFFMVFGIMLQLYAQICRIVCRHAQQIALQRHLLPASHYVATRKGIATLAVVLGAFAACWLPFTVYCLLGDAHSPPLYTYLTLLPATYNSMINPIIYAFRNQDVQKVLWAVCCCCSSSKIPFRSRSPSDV
T4 sequence (P46089 whole entry Y280A): as the sequence (P46089 whole entry) above, with Y280A counted along it
T3 sequence (P46089 whole entry H96A): as the sequence (P46089 whole entry) above, with H96A counted along it
T2 sequence (P46095 whole entry, species assumed): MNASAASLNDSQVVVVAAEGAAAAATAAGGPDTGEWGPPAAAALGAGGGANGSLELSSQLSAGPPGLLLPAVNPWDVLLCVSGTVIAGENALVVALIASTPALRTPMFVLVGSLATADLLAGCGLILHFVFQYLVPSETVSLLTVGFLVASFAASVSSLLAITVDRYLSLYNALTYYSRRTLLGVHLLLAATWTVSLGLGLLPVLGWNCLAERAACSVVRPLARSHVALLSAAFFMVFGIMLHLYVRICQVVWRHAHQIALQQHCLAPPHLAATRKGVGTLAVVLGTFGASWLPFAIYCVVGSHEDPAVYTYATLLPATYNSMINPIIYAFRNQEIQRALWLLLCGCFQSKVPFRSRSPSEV
T5 sequence (P46089 whole entry F120A): as the sequence (P46089 whole entry) above, with F120A counted along it
T8 sequence (P46089 whole entry A201W): as the sequence (P46089 whole entry) above, with A201W counted along it
T6 sequence (P46089 whole entry L283F): as the sequence (P46089 whole entry) above, with L283F counted along it
T10 sequence (P46089 whole entry W260A): as the sequence (P46089 whole entry) above, with W260A counted along it
T7 sequence (P46089 whole entry H96A/Y280A): as the sequence (P46089 whole entry) above, with H96A, Y280A counted along it

Compound	cAMP induction activity (in words) (GPR3 [1]; GPR3 stably expressing AD293)	maximum response (GPR3 [1]; [6])	EC50 (GPR3 [1]; [7])	Emax compared to Emax of OA (GPR3 [1]; cAMP assay)	also measured
LPA 18:1	none of the lysophospholipids that we tested exhibited cAMP induction activity	0.5			
CCCCCC/C=C\CCCCCCCC(=O)O [PML, palmitoleic acid]		61.8	328 µM		GPR6 activation (in words) (GPR6): strongly activated GPR6; Emax / receptor activation compared to PAL (GPR3 [1]; cAMP assay): half of the Emax of PAL; also recorded: substantially decreased receptor activation compared to PAL
LPA 16:0	none of the lysophospholipids that we tested exhibited cAMP induction activity	0.5			
CCCCCCCCCCCCCCCCCC(=O)OC [MES, methyl stearate]	completely abolished receptor activation; also recorded: failed to activate the receptor	0.9			
CC(C)Oc1cc(Cl)ccc1CNc1cc(-c2ccccc2)nc2ncnn12 [AF64394]					IC50 (GPR3 [2]): 0.171 µM
CCCCC/C=C\C/C=C\CCCCCCCC(=O)O [LIN, Linoleic acid]	failed to activate the receptor; also recorded: almost no activity	2.9			Gs/cAMP/PKA signaling (phosphorylation of PKA substrates) [3, 8]: neither STE nor LIN induced Gs/cAMP/PKA signaling; EC50 (GPR120): 57.4 µM
CCCCCCCCCCCCCCCCCC(=O)OCC [ETS, ethyl stearate]	completely abolished receptor activation; also recorded: failed to activate the receptor	0.6			
CCCCCCCCCCCCCCCCCC(=O)O [STE, stearic acid]	weak activity	44.8	361 µM	about 1/3	Gs/cAMP/PKA signaling (phosphorylation of PKA substrates) [3, 8]: neither STE nor LIN induced Gs/cAMP/PKA signaling
CCCCCCCC/C=C\CCCCCCCC(N)=O [OLM, Oleamide]		75.1	334 µM	half of the Emax of OA	
CCCCCCCC/C=C\CCCCCCCC(=O)O [OA, oleic acid]		164.1	299 µM and 300 µM		EC50 (GPR3 H96A mutant): 255 µM; maximum response (GPR3 H96A mutant): 83.68; EC50 (GPR3 Y280A mutant): 322 µM; maximum response (GPR3 Y280A mutant): 61.91; Gs/cAMP/PKA signaling (phosphorylation of PKA substrates) [3, 8]: robust increase of Gs/cAMP/PKA signaling; also recorded: substantially increased Gs/cAMP/PKA signaling; Gs/cAMP/PKA signaling (phosphorylation of PKA substrates) ([3]; WT iBAT at 37 °C, OA 1 mM, 5 mM): to a lesser extent than in the samples treated at 4 °C; thermogenesis and body weight [4]: induces thermogenesis and reduces body weight; EC50 (GPR3 F120A mutant): 252 µM; maximum response (GPR3 F120A mutant): 23.67; maximum response (GPR3 L283F mutant): 39.13; Emax compared to WT receptor (in words) (GPR3 H96A/Y280A mutant): lower Emax than the WT receptor; EC50 (GPR120): 40.6 µM; EC50 (GPR3 A201W mutant): 291 µM; maximum response (GPR3 A201W mutant): 157.9; induction of Gs/cAMP/PKA signaling by OA [5]: completely blocked; GPR12 activation (in words) (GPR12): strongest effect on GPR12 activation; response to OA (in words) (GPR3 W260A mutant): completely lost their response to OA; EC50 (GPR3 [1]; [9]): 293 µM; maximum response (GPR3 [1]; [9]): 186.6
LPC 14:0	none of the lysophospholipids that we tested exhibited cAMP induction activity	1.8			
CCCCC/C=C\C[C@@H](O)/C=C/C=C/C=C\[C@@H](O)CCCC(=O)O [LTB4, leukotriene B4]	failed to activate GPR3	0.8			
CCCCCCCCCCCCCCCC(=O)O [PAL, palmitic acid]		118.7	311 µM	slightly lower Emax than OA	
c1ccc2c(c1)[I+]c1ccccc1-2 [DPI, diphenyleneiodonium chloride]				higher Emax	
CCCCCCCCCCCCC/C=C/[C@@H](O)[C@@H](N)COP(=O)(O)O [S1P, sphingosine-1-phosphate]	none of the lysophospholipids that we tested exhibited cAMP induction activity	0.6			
CCCCCCCC/C=C\CCCCCCCC(=O)NCCO [OEA, oleoylethanolamide]		60.9	336 µM	half of the Emax of OA	
CCCCCCCCCCCCCCCCCCCCCC(=O)O [BEH, behenic acid]	no activity at all; also recorded: failed to activate the receptor	1.0			
CCCCCCCCCCCC(=O)O [LAU, lauric acid]	fully activate GPR3	204.5	320 µM	higher Emax than OA	GPR6 activation (in words) (GPR6): strongly activated GPR6

Source: paper PMC10907358, “Identification of oleic acid as an endogenous ligand of GPR3” (Cell Research, 2024)
